The values that follow come from article PMC7895462 (Neurochemical research, 2017).

Structures are written as SMILES. Like-named read-outs stand apart in the source and are kept apart here.

For data set [1], the system named is MES-induced seizures. Briefly: Maximal electroshock. The data set is classed as in vivo. For orientation: The maximal electroshock test induces tonic seizures with an electrical stimulus.
The conditions of data set [2]: 0.5 and 2 h, default doses 30, 100, 300 mg/kg.
Data set [3] relates to MES-induced seizures. Briefly: Maximal electroshock. In kind it is in vivo. To be noted: for ED50: Mus musculus; for Mouse I.P identification MES / Mouse P.O. identification MES: 0.5 and 2 h, default doses 30, 100, 300 mg/kg.
Data set [4] can be described thus: in vivo. To be noted: mouse.
The test system of data set [5] is 60 Hz corneal kindled seizures. The data set is described as follows: animal or person. Particulars: Mus musculus, ip.
A short description of data set [6]: Minimal motor impairment. Particulars: for TD50: rat, in vivo.
The subject of data set [7] is 60 Hz corneal kindled seizures. Particulars: for protected in the corneal kindled mouse: 30 min after administration; for average seizure score (SEM): corneal kindled mouse.
The subject of data set [8] is psychomotor seizures induced by 6 Hz 44 mA corneal stimulus. The data set is described as follows: 6 Hz 44 mA mouse test. To be noted: for ED50: Mus musculus; for Mouse I.P identification 44 mA / Mouse P.O. identification 44 mA: 6 Hz 44 mA, 0.5 and 2 h, default doses 30, 100, 300 mg/kg. In kind it is in vivo.
For data set [9] the following is noted: in vivo; for Rat I.P. identification TOX: ip; for Rat P.O. identification TOX: po.
Data set [10] has as its system spontaneous bursting of a mEC-HC slice. Briefly: In vitro post-KA rat spontaneous bursting mEC-HC slice. In kind it is cell-based.
Data set [11] in a line: in vivo. To be noted: rat.
[12] abbreviates: ip, read-out: Mouse I.P. quantification MES (ED50).
The mark [13] stands for this setting: po, read-out: Mouse P.O. quantification MES (ED50).
[14] abbreviates: read-out: Mouse CKM (I.P.) Quant (ED50).
[15] abbreviates: ip, Rat I.P. quantification TOX (TD50).
Setting [16] is: po, Rat P.O. quantification TOX (TD50).
Where [17] appears, read: ip, read-out: Mouse I.P. quantification 44 mA (ED50).
[18] abbreviates: po, read-out: Mouse P.O. quantification 44 mA (ED50).
Where [19] appears, read: read-out: Mouse CKM (I.P.) Quant (ED50), i.p.

Usually ED50 stands for the midpoint of the dose-response relation.

With `CCOC(=O)Nc1ccc(NCc2ccc(F)cc2)cc1N` [Retigabine, retigabine], the “Rat I.P. identification MES” value in data set [1] is “+”. Further, the “Rat P.O. identification MES” value in data set [1] was “+”. Also, the “Mouse P.O. identification TOX” value in data set [2] is listed as “+”. Also, the ED50 in data set [3] (setting [12]) was found to be 25.7 mg/kg; in [3] (setting [13]), 57 mg/kg; in data set [5] (setting [14]), 13.7 mg/kg; in [8] (setting [17]) it was 32.5 mg/kg; in data set [8] (setting [18]), 75.1 mg/kg. Further, the “Mouse I.P identification MES” value in data set [3] is “+”. Further, the “Mouse P.O. identification MES” value in [3] is “+”. Besides, the TD50 is 129 mg/kg in [4] (ip), above 500 mg/kg in [4] (po), 23.4 mg/kg in data set [6] (setting [15]) and 64.4 mg/kg in data set [6] (setting [16]). Further, the “Rat I.P. identification TOX” value in data set [6] is given as “+”. Moreover, in data set [6], the “Rat P.O. identification TOX” value is reported as “+”. For the same compound, in [7] (i.p.), the “Mouse CKM (I.P.) ID” value is “+”. Also, the “Mouse I.P identification 44 mA” value in [8] was “+”. Further, the “Mouse P.O. identification 44 mA” value in data set [8] is on record as “+”.

On to `CC(=O)Nc1ccc(O)cc1` [Acetaminophen, acetaminophen], for which, in data set [1], the “Rat I.P. identification MES” value was “−”. Also, the “Rat P.O. identification MES” value in data set [1] is listed as “−”. For the same compound, the “Mouse I.P identification MES” value in [3] is “−”. For the same compound, the “Mouse P.O. identification MES” value in [3] is “−”. Further, in data set [9], the “Rat I.P. identification TOX” value was “−”. The “Rat P.O. identification TOX” value in data set [9] was “−”. In data set [5] (setting [19]), the ED50 is above 450 mg/kg. The “amplitude of spontaneous bursts” value in data set [10] (3000 μM) was “small, but significant increase”. Further, the “acute effects on spontaneous bursting in vitro” value in [10] (concentrations up to 1000 μM) is “did not identify any acute effects”. For the same compound, the “protected in the corneal kindled mouse” value was 1/8 in data set [7] (20 mg/kg, i.p.); 0/8 in data set [7] (80 mg/kg, i.p.); 1/8 in data set [7] (120 mg/kg, i.p.); 2/8 in data set [7] (150 mg/kg, i.p.); 0/12 in data set [7] (175 mg/kg, i.p.); 3/4 in data set [7] (450 mg/kg, i.p.). The “death of corneal kindled mice” value in data set [7] (450 mg/kg, 24-hours later) was 1/4. For the same compound, the “Mouse CKM (I.P.) ID” value in data set [7] (i.p.) is “+”. Besides, in [8], the “Mouse I.P identification 44 mA” value was “−”. Besides, the “Mouse P.O. identification 44 mA” value in data set [8] is reported as “−”.

For the compound `OC[C@H]1O[C@@H](n2cnc3c(NC4CCCC4)ncnc32)[C@H](O)[C@@H]1O` [N6-Cyclopentyladenosine, N^6-cyclopentyladenosine], the “Rat I.P. identification MES” value in [1] is recorded as “+”. Also, the “Rat P.O. identification MES” value in data set [1] was “+”. The “Mouse I.P identification TOX” value in data set [2] is given as “+”. The “Mouse P.O. identification TOX” value in data set [2] was “+”. For the same compound, the ED50 in data set [3] (setting [12]) amounted to 1.01 mg/kg; in data set [3] (setting [13]), 4.43 mg/kg; in [8] (setting [17]), 0.19 mg/kg; in data set [8] (setting [18]) it was 1.36 mg/kg. In addition, the “Mouse I.P identification MES” value in data set [3] is on record as “+”. Besides, the “Mouse P.O. identification MES” value in data set [3] is “+”. For the same compound, the TD50 was 0.94 mg/kg in data set [4] (ip), 6.94 mg/kg in data set [4] (po) and above 10 mg/kg in data set [6] (setting [16]). Moreover, the “Rat I.P. identification TOX” value in data set [6] was “+”. In data set [6], the “Rat P.O. identification TOX” value was “+”. Besides, the “average seizure score (SEM)” value came out at 4.75 ± 0.25 in data set [7] (0.1 mg/kg) and 4.88 ± 0.13 in data set [7] (2 mg/kg). In addition, in [7] (i.p.), the “Mouse CKM (I.P.) ID” value is “−”. In data set [8], the “Mouse I.P identification 44 mA” value was “+”. In addition, the “Mouse P.O. identification 44 mA” value in data set [8] is “+”.

In the case of `CN1C(=O)CC(=O)N(c2ccccc2)c2cc(Cl)ccc21` [Clobazam, clobazam], the “Rat I.P. identification MES” value in data set [1] is recorded as “−”. Also, in data set [1], the “Rat P.O. identification MES” value is “−”. Also, in data set [2], the “Mouse I.P identification TOX” value was “+”. Besides, the “Mouse P.O. identification TOX” value in [2] is reported as “−”. In addition, the ED50 in data set [3] (setting [12]) stood at 16.5 mg/kg; in data set [3] (setting [13]), 29.9 mg/kg; in data set [5] (setting [14]) it was 2.53 mg/kg; in [8] (setting [17]), 4.5 mg/kg; in data set [8] (setting [18]), 6.99 mg/kg. For the same compound, the “Mouse I.P identification MES” value in [3] was “+”. Moreover, in data set [3], the “Mouse P.O. identification MES” value is reported as “+”. In addition, the TD50 in [4] (ip) turned out to be 26.1 mg/kg; in data set [4] (po), 197 mg/kg; in data set [6] (setting [15]), 15.7 mg/kg. For the same compound, the “Rat I.P. identification TOX” value in data set [6] is “−”. Further, the “Rat P.O. identification TOX” value in [6] is reported as “−”. In data set [7] (calculated based on the i.p. TD50), the “protective index (PI), corneal kindled mouse” value (shortened to “protective index (PI)”) was 10.3. The “Mouse CKM (I.P.) ID” value in [7] (i.p.) is “+”. Also, the “Mouse I.P identification 44 mA” value in data set [8] is given as “+”. Moreover, in data set [8], the “Mouse P.O. identification 44 mA” value is recorded as “+”.

On to `NC(=O)N1c2ccccc2C=Cc2ccccc21` [Carbamazepine, carbamazepine], for which the “Rat I.P. identification MES” value in data set [1] is listed as “+”. Moreover, the “Rat P.O. identification MES” value in [1] is given as “+”. In addition, the median effective dose (ED50) was 8.38 mg/kg in data set [3] (setting [12]); 11.3 mg/kg in data set [3] (setting [13]); 6.42 mg/kg in data set [5] (setting [19]); 31.4 mg/kg in data set [8] (setting [17]); 63.7 mg/kg in data set [8] (setting [18]). The “Mouse I.P identification MES” value in data set [3] is given as “+”. For the same compound, in data set [3], the “Mouse P.O. identification MES” value was “+”. Further, the “Rat I.P. identification TOX” value in [9] is recorded as “+”. In addition, the “Rat P.O. identification TOX” value in [9] was “+”. Besides, the TD50 was 95.4 mg/kg in data set [4] (po), 22.9 mg/kg in [11] (ip) and above 500 mg/kg in data set [11] (po). Further, the “Mouse CKM (I.P.) ID” value in data set [7] (i.p.) is listed as “+”. Besides, in [7] (male, CF-1, mouse, in vivo, ip), the “protective index (PI)” value amounted to 7.1. For the same compound, in [8], the “Mouse I.P identification 44 mA” value is given as “+”. Further, in [8], the “Mouse P.O. identification 44 mA” value is given as “+”.

For `CCCC(CCC)C(=O)O` [Valproic acid, valproic acid], in data set [1], the “Rat I.P. identification MES” value was “−”. In addition, in data set [1], the “Rat P.O. identification MES” value was “−”. The ED50 in data set [3] (setting [12]) is above 60 mg/kg; in data set [3] (setting [13]), above 300 mg/kg; in [5] (setting [19]) it was 94 mg/kg; in data set [8] (setting [17]), 239 mg/kg; in [8] (setting [18]) it was above 300 mg/kg. Further, the “Mouse P.O. identification MES” value in data set [3] was “−”. The “Rat I.P. identification TOX” value in data set [9] was “−”. For the same compound, in [9], the “Rat P.O. identification TOX” value was “−”. Further, the results for the TD50 in data set [4] (ip) and in data set [4] (po) were above 300 mg/kg and below 300 mg/kg, respectively. The “Mouse CKM (I.P.) ID” value in data set [7] (i.p.) is listed as “+”. The “Mouse CKM (I.P.) Quant (ED50)” value in data set [7] (i.p.) stood at 94.02 mg/kg. For the same compound, the “protective index (PI)” value in data set [7] (male, CF-1, mouse, in vivo, ip) is recorded as above 94. Also, the “Mouse I.P identification 44 mA” value in data set [8] was “+”. Further, in data set [8], the “Mouse P.O. identification 44 mA” value is given as “−”.

For the compound `CC[C@@H](C(N)=O)N1CCCC1=O` [Levetiracetam, levetiracetam], in data set [1], the “Rat I.P. identification MES” value is given as “−” and the “Rat P.O. identification MES” value is listed as “−”. For the same compound, in data set [3], the “Mouse I.P identification MES” value is listed as “−” and the “Mouse P.O. identification MES” value is listed as “−”. Further, in data set [9], the “Rat I.P. identification TOX” value is given as “−” and the “Rat P.O. identification TOX” value is “−”. This compound showed a TD50 in [4] (ip) above 1500 mg/kg. In data set [4] (po), this compound had a TD50 above 500 mg/kg. In data set [7] (i.p.), the “Mouse CKM (I.P.) ID” value is listed as “+”. Moreover, in data set [8] (setting [17]), the ED50 is above 1500 mg/kg. The ED50 in [8] (setting [18]) is above 500 mg/kg. In addition, in data set [8], the “Mouse I.P identification 44 mA” value is given as “+” and the “Mouse P.O. identification 44 mA” value was “+”.

As for `Cc1ccsc1C(=CCCN1CCC[C@@H](C(=O)O)C1)c1sccc1C` [Tiagabine, tiagabine], in data set [1], the “Rat I.P. identification MES” value is listed as “−” and the “Rat P.O. identification MES” value was “−”. Besides, in data set [3], the “Mouse I.P identification MES” value is listed as “−” and the “Mouse P.O. identification MES” value is “−”. Further, in data set [9], the “Rat I.P. identification TOX” value is “+” and the “Rat P.O. identification TOX” value is “−”. The compound also displayed a TD50 in data set [4] (ip) of 5.84 mg/kg. Also, the TD50 in [4] (po) stood at 33.2 mg/kg. In [8] (setting [17]), the ED50 worked out at 1.03 mg/kg. For the same compound, the ED50 in [8] (setting [18]) is 1.87 mg/kg. Also, in data set [8], the “Mouse I.P identification 44 mA” value is “+” and the “Mouse P.O. identification 44 mA” value is reported as “+”.
